Experimental data reported in ChEMBL document CHEMBL5303573, “Mapping human microbiome drug metabolism by gut bacteria and their genes” (Nature, 2019).

Columns and labels:
[1] = The drug is tested on Dorea formicigenerans strain: ATCC27755 for biotransformation. The drug concentrations were measured before and after a 12-h incubation by liquid-chromatography-coupled mass spectrometry (LC–MS); settings: 2 µM
[2] = The drug is tested on Bacteroides xylanisolvens strain: DSM18836 for biotransformation. The drug concentrations were measured before and after a 12-h incubation by liquid-chromatography-coupled mass spectrometry (LC–MS); settings: 2 µM
[3] = The drug is tested on Subdoligranulum variabile strain: DSM15176 for biotransformation. The drug concentrations were measured before and after a 12-h incubation by liquid-chromatography-coupled mass spectrometry (LC–MS); settings: 2 µM
[4] = The drug is tested on Bacteroides caccae strain: ATCC43185 for biotransformation. The drug concentrations were measured before and after a 12-h incubation by liquid-chromatography-coupled mass spectrometry (LC–MS); settings: 2 µM
[5] = The drug is tested on Blautia luti strain: DSM14534 for biotransformation. The drug concentrations were measured before and after a 12-h incubation by liquid-chromatography-coupled mass spectrometry (LC–MS); format: ADME; parameters: dose 2 uM, timepoint 0 vs 12 hours; settings: 2 µM
[6] = The drug is tested on Bacteroides fragilis strain: HMW610 for biotransformation. The drug concentrations were measured before and after a 12-h incubation by liquid-chromatography-coupled mass spectrometry (LC–MS); settings: 2 µM
[7] = The drug is tested on Odoribacter splanchnicus strain: fecal isolate for biotransformation. The drug concentrations were measured before and after a 12-h incubation by liquid-chromatography-coupled mass spectrometry (LC–MS); settings: 2 µM
[8] = The drug is tested on Coprococcus comes strain: ATCC27758 for biotransformation. The drug concentrations were measured before and after a 12-h incubation by liquid-chromatography-coupled mass spectrometry (LC–MS); format: ADME; parameters: dose 2 uM, timepoint 0 vs 12 hours; settings: 2 µM
[9] = bacteroides intestinalis, 12 h, 2 µM
Description: The drug is tested on Bacteroides intestinalis strain: DSM17393 for biotransformation. The drug concentrations were measured before and after a 12-h incubation by liquid-chromatography-coupled mass spectrometry (LC–MS)

[10] = The drug is tested on Bacteroides vulgatus strain: ATCC8482 for biotransformation. The drug concentrations were measured before and after a 12-h incubation by liquid-chromatography-coupled mass spectrometry (LC–MS); settings: phocaeicola vulgatus, 2 µM
[11] = akkermansia muciniphila, 12 h, 2 µM
Description: The drug is tested on Akkermansia muciniphila strain: ATCC BAA-835 for biotransformation. The drug concentrations were measured before and after a 12-h incubation by liquid-chromatography-coupled mass spectrometry (LC–MS)

[12] = segatella copri, 12 h, 2 µM
Description: The drug is tested on Prevotella copri strain: DSM18205 for biotransformation. The drug concentrations were measured before and after a 12-h incubation by liquid-chromatography-coupled mass spectrometry (LC–MS)

[13] = The drug is tested on Bacteroides uniformis strain: ATCC8492 for biotransformation. The drug concentrations were measured before and after a 12-h incubation by liquid-chromatography-coupled mass spectrometry (LC–MS); settings: 2 µM
[14] = anaerostipes sp., 12 h, 2 µM
Description: The drug is tested on Anaerostipes sp. strain: fecal isolate for biotransformation. The drug concentrations were measured before and after a 12-h incubation by liquid-chromatography-coupled mass spectrometry (LC–MS)

[15] = bacteroides fragilis, 12 h, 2 µM
Description: The drug is tested on Bacteroides fragilis strain: DS-208 for biotransformation. The drug concentrations were measured before and after a 12-h incubation by liquid-chromatography-coupled mass spectrometry (LC–MS)

[16] = The drug is tested on Bacteroides cellulosilyticus strain: DSM14838 for biotransformation. The drug concentrations were measured before and after a 12-h incubation by liquid-chromatography-coupled mass spectrometry (LC–MS); settings: 2 µM
[17] = The drug is tested on Clostridium symbiosum strain: ATCC14940 for biotransformation. The drug concentrations were measured before and after a 12-h incubation by liquid-chromatography-coupled mass spectrometry (LC–MS); settings: 2 µM
[18] = The drug is tested on Enterobacter cancerogenus strain: ATCC35316 for biotransformation. The drug concentrations were measured before and after a 12-h incubation by liquid-chromatography-coupled mass spectrometry (LC–MS); settings: 2 µM
[19] = The drug is tested on Bacteroides fragilis strain: HMW615 for biotransformation. The drug concentrations were measured before and after a 12-h incubation by liquid-chromatography-coupled mass spectrometry (LC–MS); settings: 2 µM

SMILES	Bacterial Biotransformation [1]	Bacterial Biotransformation [2]	Bacterial Biotransformation [3]	Bacterial Biotransformation [4]	Bacterial Biotransformation [5]	Bacterial Biotransformation [6]	Bacterial Biotransformation [7]	Bacterial Biotransformation [8]	Bacterial Biotransformation [9]	Bacterial Biotransformation [10]	Bacterial Biotransformation [11]	Bacterial Biotransformation [12]	Bacterial Biotransformation [13]	Bacterial Biotransformation [14]	Bacterial Biotransformation [15]	Bacterial Biotransformation [16]	Bacterial Biotransformation [17]	Bacterial Biotransformation [18]	Bacterial Biotransformation [19]
CN1[C@@H]2CC[C@H]1C[C@@H](OC(=O)C(CO)c1ccccc1)C2 (some centres not stated) [ATROPINE]	Compound NOT metabolized	Compound NOT metabolized	Compound NOT metabolized	Compound NOT metabolized	Compound NOT metabolized	Compound NOT metabolized	Compound NOT metabolized	Compound NOT metabolized	Compound NOT metabolized	Compound NOT metabolized	Compound NOT metabolized	Compound NOT metabolized	Compound NOT metabolized	–	–	–	–	–	–
CC(C)c1c(CN(C)C(C)Cc2ccccc2)n(C)n(-c2ccccc2)c1=O (configuration not stated) [FAMPROFAZONE]	Compound metabolized	Compound metabolized	Compound metabolized	Compound NOT metabolized	Compound NOT metabolized	Compound metabolized	Compound metabolized	Compound NOT metabolized	Compound metabolized	Compound metabolized	Compound metabolized	Compound metabolized	Compound metabolized	Compound metabolized	Compound metabolized	Compound metabolized	Compound NOT metabolized	–	–
CN1CCOC(c2ccccc2)c2ccccc2C1 (configuration not stated) [NEFOPAM]	Compound NOT metabolized	Compound NOT metabolized	Compound NOT metabolized	Compound NOT metabolized	Compound NOT metabolized	Compound NOT metabolized	–	Compound NOT metabolized	Compound NOT metabolized	–	–	Compound NOT metabolized	–	Compound NOT metabolized	Compound NOT metabolized	–	Compound NOT metabolized	Compound NOT metabolized	–
CN1CCC(OC(c2ccccc2)c2ccccc2)CC1	Compound NOT metabolized	–	Compound NOT metabolized	Compound NOT metabolized	Compound NOT metabolized	–	Compound NOT metabolized	Compound NOT metabolized	Compound NOT metabolized	Compound NOT metabolized	–	Compound NOT metabolized	Compound NOT metabolized	Compound NOT metabolized	Compound NOT metabolized	–	Compound NOT metabolized	–	–
CN1CCC(=C2c3ccccc3CC(=O)c3sccc32)CC1.O=C(O)/C=C/C(=O)O [KETOTIFEN FUMARATE]	Compound NOT metabolized	Compound NOT metabolized	Compound NOT metabolized	Compound NOT metabolized	Compound NOT metabolized	Compound NOT metabolized	Compound NOT metabolized	Compound NOT metabolized	Compound NOT metabolized	–	Compound NOT metabolized	Compound NOT metabolized	Compound NOT metabolized	Compound NOT metabolized	Compound NOT metabolized	–	Compound NOT metabolized	Compound NOT metabolized	–
Cc1cc2c(s1)Nc1ccccc1N=C2N1CCN(C)CC1 [OLANZAPINE]	Compound NOT metabolized	Compound NOT metabolized	Compound NOT metabolized	Compound NOT metabolized	Compound NOT metabolized	Compound metabolized	Compound metabolized	Compound NOT metabolized	Compound NOT metabolized	Compound NOT metabolized	Compound NOT metabolized	Compound NOT metabolized	–	Compound NOT metabolized	Compound NOT metabolized	–	Compound NOT metabolized	–	Compound metabolized
CN1C(=O)CC(C)(c2ccccc2)C1=O (configuration not stated) [METHSUXIMIDE]	Compound NOT metabolized	Compound NOT metabolized	Compound NOT metabolized	Compound NOT metabolized	Compound NOT metabolized	–	Compound NOT metabolized	Compound NOT metabolized	Compound NOT metabolized	–	–	Compound NOT metabolized	Compound NOT metabolized	Compound NOT metabolized	Compound NOT metabolized	Compound NOT metabolized	Compound NOT metabolized	–	–
COc1ccc(Cc2nccc3cc(OC)c(OC)cc23)cc1OC [PAPAVERINE]	Compound NOT metabolized	Compound NOT metabolized	Compound NOT metabolized	Compound NOT metabolized	Compound NOT metabolized	–	–	Compound NOT metabolized	Compound NOT metabolized	–	–	Compound NOT metabolized	–	Compound NOT metabolized	Compound NOT metabolized	–	Compound NOT metabolized	Compound NOT metabolized	–
COc1ccc2c(c1)c(CC(=O)O)c(C)n2C(=O)c1ccc(Cl)cc1 [INDOMETHACIN]	Compound NOT metabolized	Compound metabolized	–	Compound metabolized	Compound NOT metabolized	Compound NOT metabolized	Compound metabolized	Compound NOT metabolized	Compound metabolized	Compound metabolized	Compound metabolized	Compound metabolized	Compound metabolized	Compound metabolized	Compound metabolized	Compound metabolized	Compound metabolized	Compound NOT metabolized	Compound NOT metabolized
O=C(CCCN1CCC(O)(c2ccc(Cl)cc2)CC1)c1ccc(F)cc1 [HALOPERIDOL]	Compound NOT metabolized	–	Compound NOT metabolized	Compound NOT metabolized	Compound NOT metabolized	Compound NOT metabolized	Compound NOT metabolized	Compound NOT metabolized	Compound NOT metabolized	Compound NOT metabolized	Compound NOT metabolized	Compound NOT metabolized	–	Compound NOT metabolized	Compound NOT metabolized	–	Compound NOT metabolized	Compound NOT metabolized	–
